In PubChem BioAssay (NCI):
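48-hour exposure; five concentrations; linearly interpolated endpoints. TGI is the concentration that stops growth completely.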

Assays:
Test in all cases: NCI tumour cell line growth inhibition, 48 h
786-0 renal = tested on: 786-0 renal
A498 renal = tested on: A498 renal
A549 NSCLC = tested on: A549 NSCLC
ACHN renal = tested on: ACHN renal
CAKI-1 renal = tested on: CAKI-1 renal
CCRF-CEM leukemia = tested on: CCRF-CEM leukemia
COLO 205 colon = tested on: COLO 205 colon
DLD-1 colon = tested on: DLD-1 colon
DMS 114 small cell lung = tested on: DMS 114 small cell lung
EKVX NSCLC = tested on: EKVX NSCLC
HCC-2998 colon = tested on: HCC-2998 colon
HCT-116 colon = tested on: HCT-116 colon
HCT-15 colon = tested on: HCT-15 colon
HOP-18 NSCLC = tested on: HOP-18 NSCLC
HOP-62 NSCLC = tested on: HOP-62 NSCLC
HT29 colon = tested on: HT29 colon
IGROV1 ovarian = tested on: IGROV1 ovarian
K-562 leukemia = tested on: K-562 leukemia
KM12 colon = tested on: KM12 colon
KM20L2 colon = tested on: KM20L2 colon
LXFL 529 NSCLC = tested on: LXFL 529 NSCLC
M14 melanoma = tested on: M14 melanoma
M19-MEL melanoma = tested on: M19-MEL melanoma
MALME-3M melanoma = tested on: MALME-3M melanoma
MOLT-4 leukemia = tested on: MOLT-4 leukemia
NCI-H23 lung = tested on: NCI-H23 lung
NCI-H460 lung = tested on: NCI-H460 lung
NCI-H522 lung = tested on: NCI-H522 lung
OVCAR-3 ovarian = tested on: OVCAR-3 ovarian
OVCAR-4 ovarian = tested on: OVCAR-4 ovarian
OVCAR-5 ovarian = tested on: OVCAR-5 ovarian
OVCAR-8 ovarian = tested on: OVCAR-8 ovarian
RPMI-8226 leukemia = tested on: RPMI-8226 leukemia
SF-268 CNS = tested on: SF-268 CNS
SF-295 CNS = tested on: SF-295 CNS
SF-539 CNS = tested on: SF-539 CNS
SK-MEL-2 melanoma = tested on: SK-MEL-2 melanoma
SK-MEL-28 melanoma = tested on: SK-MEL-28 melanoma
SK-MEL-5 melanoma = tested on: SK-MEL-5 melanoma
SK-OV-3 ovarian = tested on: SK-OV-3 ovarian
SN12C renal = tested on: SN12C renal
SNB-19 CNS = tested on: SNB-19 CNS
SNB-75 CNS = tested on: SNB-75 CNS
SW-620 colon = tested on: SW-620 colon
TK-10 renal = tested on: TK-10 renal
U251 CNS = tested on: U251 CNS
UACC-257 melanoma = tested on: UACC-257 melanoma
UACC-62 melanoma = tested on: UACC-62 melanoma
UO-31 renal = tested on: UO-31 renal
XF 498 CNS = tested on: XF 498 CNS
DMS 273 small cell lung = tested on: DMS 273 small cell lung
HL-60(TB) leukemia = tested on: HL-60(TB) leukemia
HOP-92 NSCLC = tested on: HOP-92 NSCLC
LOX IMVI melanoma = tested on: LOX IMVI melanoma
MCF7 breast = tested on: MCF7 breast
NCI-H226 lung = tested on: NCI-H226 lung
NCI/ADR-RES ovarian = tested on: NCI/ADR-RES ovarian
P388 leukemia = tested on: P388 leukemia
P388/ADR leukemia = tested on: P388/ADR leukemia
RXF 393 renal = tested on: RXF 393 renal
SN12K1 renal = tested on: SN12K1 renal
SNB-78 CNS = tested on: SNB-78 CNS

Measured: TGI

COc1cc2cnc3c4cc(OC(C)C)c(OC)cc4ccc3c2cc1OC
> 100 µM: 786-0 renal | A498 renal | A549 NSCLC | ACHN renal | CAKI-1 renal | CCRF-CEM leukemia | COLO 205 colon | DLD-1 colon | DMS 114 small cell lung | EKVX NSCLC | HCC-2998 colon | HCT-116 colon | HCT-15 colon | HOP-18 NSCLC | HOP-62 NSCLC | HT29 colon | IGROV1 ovarian | K-562 leukemia | KM12 colon | KM20L2 colon | LXFL 529 NSCLC | M14 melanoma | M19-MEL melanoma | MALME-3M melanoma | MOLT-4 leukemia | NCI-H23 lung | NCI-H460 lung | NCI-H522 lung | OVCAR-3 ovarian | OVCAR-4 ovarian | OVCAR-5 ovarian | OVCAR-8 ovarian | RPMI-8226 leukemia | SF-268 CNS | SF-295 CNS | SF-539 CNS | SK-MEL-2 melanoma | SK-MEL-28 melanoma | SK-MEL-5 melanoma | SK-OV-3 ovarian | SN12C renal | SNB-19 CNS | SNB-75 CNS | SW-620 colon | TK-10 renal | U251 CNS | UACC-257 melanoma | UACC-62 melanoma | UO-31 renal | XF 498 CNS

CCCCCCNC(=O)C(C)C1CCC2(C)C=CC(=O)C(C)=C2C1O (stereo not given)
> 100 µM: A498 renal | A549 NSCLC | CAKI-1 renal | CCRF-CEM leukemia | COLO 205 colon | DLD-1 colon | DMS 114 small cell lung | DMS 273 small cell lung | EKVX NSCLC | HCC-2998 colon | HCT-116 colon | HCT-15 colon | HL-60(TB) leukemia | HOP-18 NSCLC | HOP-62 NSCLC | HOP-92 NSCLC | HT29 colon | IGROV1 ovarian | K-562 leukemia | KM12 colon | KM20L2 colon | LOX IMVI melanoma | MCF7 breast | MOLT-4 leukemia | NCI-H226 lung | NCI-H23 lung | NCI-H460 lung | NCI-H522 lung | NCI/ADR-RES ovarian | OVCAR-3 ovarian | OVCAR-4 ovarian | OVCAR-5 ovarian | OVCAR-8 ovarian | P388 leukemia | P388/ADR leukemia | RPMI-8226 leukemia | RXF 393 renal | SF-268 CNS | SF-295 CNS | SF-539 CNS | SK-MEL-2 melanoma | SK-MEL-28 melanoma | SK-MEL-5 melanoma | SK-OV-3 ovarian | SN12C renal | SN12K1 renal | SNB-19 CNS | SNB-75 CNS | SNB-78 CNS | SW-620 colon | U251 CNS | UACC-257 melanoma | UACC-62 melanoma | UO-31 renal | XF 498 CNS
